Data taken from the supplement of paper PMC10307832.

What was measured:
Assay in all cases: relative viability (nuclei count vs DMSO), 5 days (fraction); higher = more cells survive
Tosedostat + Luminespib = compound: CC(C)C[C@@H](C(=O)N[C@H](C(=O)OC1CCCC1)c1ccccc1)[C@H](O)C(=O)NO [Tosedostat] + CCNC(=O)c1noc(-c2cc(C(C)C)c(O)cc2O)c1-c1ccc(CN2CCOCC2)cc1 [Luminespib] (partner 0.01 µM)
How it was run: (§1)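 Relative viability is defined as nuclei in treated wells over nuclei in vehicle wells. Duplicate plates were run and medians reported. Lung cancer cell lines in 1536-well plates were dosed by pin tool one day after seeding, with one drug or with a fixed anchor-drug dose plus five library-drug doses (not always all listed) in √10 steps, and nuclei were counted after 5 days.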

Tosedostat + Phenformin = compound: CC(C)C[C@@H](C(=O)N[C@H](C(=O)OC1CCCC1)c1ccccc1)[C@H](O)C(=O)NO [Tosedostat] + N=C(N)NC(=N)NCCc1ccccc1 [Phenformin] (partner 250 µM)
How it was run: as §1

Tosedostat + Decitabine = compound: CC(C)C[C@@H](C(=O)N[C@H](C(=O)OC1CCCC1)c1ccccc1)[C@H](O)C(=O)NO [Tosedostat] + Nc1ncn([C@H]2C[C@H](O)[C@@H](CO)O2)c(=O)n1 [Decitabine] (partner 2 µM)
How it was run: as §1

[1] = compound: CC1=NN=C(O1)C2=NN=C(C=C2)N3CCC(CC3)OC4=C(C=CC(=C4)F)Cl + C[C@]1(O)C[C@@H](c2nc(-c3ccc4ccc(-c5ccccc5)nc4c3)c3c(N)nccn32)C1 [Linsitinib] (partner 1 µM)
How it was run: as §1

Row | Cell Line | relative viability (Tosedostat + Luminespib; first compound 0.02 µM) | relative viability (Tosedostat + Luminespib; first compound 0.06325 µM) | relative viability (Tosedostat + Luminespib; first compound 0.2 µM) | relative viability (Tosedostat + Luminespib; first compound 0.6325 µM) | relative viability (Tosedostat + Luminespib; first compound 2 µM) | relative viability (Tosedostat + Phenformin; first compound 0.02 µM) | relative viability (Tosedostat + Phenformin; first compound 0.06325 µM) | relative viability (Tosedostat + Phenformin; first compound 0.2 µM) | relative viability (Tosedostat + Phenformin; first compound 0.6325 µM) | relative viability (Tosedostat + Phenformin; first compound 2 µM) | relative viability (Tosedostat + Decitabine; first compound 0.02 µM) | relative viability (Tosedostat + Decitabine; first compound 0.06325 µM) | relative viability (Tosedostat + Decitabine; first compound 0.2 µM) | relative viability (Tosedostat + Decitabine; first compound 0.6325 µM) | relative viability (Tosedostat + Decitabine; first compound 2 µM) | relative viability ([1]; first compound 0.253 µM) | relative viability ([1]; first compound 2.53 µM) | relative viability ([1]; first compound 8 µM) | relative viability ([1]; first compound 0.8 µM)
1 | HOP-62 | 1.01 | 0.894 | 0.925 | 0.919 | 0.817 | 0.663 | 0.615 | 0.685 | 0.569 | 0.437 | 0.227 | 0.203 | 0.258 | 0.159 | 0.186 | 0.677 | 0.771 | 0.443 | 
2 | LU99A | 0.316 | 0.245 | 0.337 | 0.277 | 0.232 | 0.925 | 0.903 | 0.821 | 0.641 | 0.547 | 0.906 | 0.769 | 0.909 | 0.744 | 0.693 | 0.459 | 0.498 | 0.466 | 0.5
3 | NCI-H3122 | 0.0953 | 0.083 | 0.106 | 0.122 | 0.132 | 0.415 | 0.385 | 0.362 | 0.368 | 0.292 | 0.497 | 0.524 | 0.447 | 0.411 | 0.418 | 0.729 | 0.749 | 0.517 | 0.551
4 | NCI-H1651 | 0.787 | 0.715 | 0.981 | 0.828 | 0.582 | 0.324 | 0.328 | 0.293 | 0.267 | 0.306 | 0.683 | 0.63 | 0.501 | 0.523 | 0.503 | 0.857 | 0.807 | 0.801 | 0.873
5 | NCI-H661 | 0.958 | 0.957 | 0.977 | 0.909 | 0.885 | 0.259 | 0.259 | 0.312 | 0.304 | 0.265 | 0.637 | 0.547 | 0.535 | 0.522 | 0.512 | 0.566 | 0.62 | 0.469 | 0.531
6 | NCI-H1755 | 0.595 | 0.512 | 0.512 | 0.578 | 0.415 | 0.599 | 0.574 | 0.571 | 0.602 | 0.406 | 0.861 | 0.699 | 0.712 | 0.716 | 0.674 | 0.661 | 0.728 | 0.683 | 0.754
7 | NCI-H1734 | 0.183 | 0.197 | 0.194 | 0.229 | 0.232 | 0.453 | 0.399 | 0.393 | 0.372 | 0.345 | 0.487 | 0.509 | 0.461 | 0.418 | 0.446 | 0.863 | 0.814 | 0.601 | 0.783
8 | NCI-H1993 | 0.87 | 0.736 | 1.05 | 0.827 | 0.781 | 0.514 | 0.507 | 0.459 | 0.497 | 0.499 | 0.487 | 0.673 | 0.576 | 0.511 | 0.525 | 0.679 | 0.647 | 0.693 | 0.745
9 | RERF-LC-KJ | 1.35 | 1.23 | 1.36 | 1.08 | 1.2 | 0.406 | 0.395 | 0.461 | 0.364 | 0.312 | 0.657 | 0.622 | 0.615 | 0.495 | 0.457 | 0.523 | 0.6 | 0.632 | 0.568
10 | HARA | 0.683 | 0.554 | 0.766 | 0.481 | 0.779 | 0.505 | 0.383 | 0.433 | 0.326 | 0.35 | 0.583 | 0.583 | 0.427 | 0.442 | 0.457 | 0.705 | 0.451 | 0.308 | 0.394
11 | NCI-H838 | 0.323 | 0.284 | 0.308 | 0.389 | 0.355 | 0.489 | 0.56 | 0.519 | 0.659 | 0.711 | 0.483 | 0.449 | 0.431 | 0.421 | 0.392 | 0.919 | 0.93 | 0.856 | 0.872
12 | NCI-H1666 | 1.02 | 1.01 | 0.969 | 0.994 | 1.11 | 0.547 | 0.527 | 0.554 | 0.612 | 0.567 | 0.776 | 0.744 | 0.696 | 0.727 | 0.658 | 0.589 | 0.791 | 0.656 | 0.725
13 | NCI-H322M | 0.835 | 0.895 | 0.862 | 0.826 | 0.788 | 0.756 | 0.705 | 0.72 | 0.704 | 0.708 | 0.69 | 0.652 | 0.587 | 0.636 | 0.621 | 0.853 | 0.896 | 0.786 | 0.836
14 | LCLC-97TM1 | 0.775 | 0.81 | 0.688 | 0.644 | 0.652 | 0.402 | 0.433 | 0.445 | 0.403 | 0.439 | 0.186 | 0.234 | 0.212 | 0.207 | 0.184 | 0.159 | 0.174 | 0.191 | 
15 | EPLC-272H | 0.246 | 0.265 | 0.278 | 0.285 | 0.225 | 0.288 | 0.299 | 0.259 | 0.239 | 0.189 | 0.364 | 0.37 | 0.363 | 0.328 | 0.254 | 1.09 | 1.18 | 1.05 | 
16 | NCI-H2023 | 0.912 | 0.628 | 0.796 | 0.571 | 0.614 | 0.397 | 0.38 | 0.382 | 0.351 | 0.359 | 0.23 | 0.202 | 0.223 | 0.167 | 0.183 | 0.478 | 0.557 | 0.393 | 0.433
17 | NCI-H460 | 0.0336 | 0.0335 | 0.03 | 0.0417 | 0.0255 | 0.551 | 0.473 | 0.505 | 0.426 | 0.48 | 0.514 | 0.466 | 0.457 | 0.468 | 0.528 | 0.331 | 0.398 | 0.342 | 0.3
